Measured values: patent publication US12303524B2, “Compositions comprising S-adenosylmethionine and a gallic acid ester” (MSI-195 HOLDINGS, LLC, priority 2012, dated 2025)

Key:
[1] = system: Caco-2 cell monolayers; assay: Permeability of SAMe across Caco-2 cell monolayers with propyl gallate (Example 3); details: for apparent permeability coefficient Papp, apical to basolateral / apparent permeability coefficient Papp, basolateral to apical: SAMe salt alone
Protocol: The Caco-2 cell line is derived from a human colorectal carcinoma and is widely used for in vitro cell culture models for the study of gastrointestinal drug absorption (Stewart, B., (1995) Pharm. Res. 12:693). In these models, pure cell lines are grown on a semi-permeable membrane. Drug formulations are placed on the apical or basolateral side of the cell monolayer and transport is determined via measurement of drug concentrations on the other side of the membrane.
The Caco-2 cell line utilized here was from the American Type Culture Collection (ATCC). Caco-2 cells are grown in Dulbecco's modified Eagle's medium (DMEM, Gibco) supplemented with 20% FBS (fetal bovine serum, Gibco), 100 uM non-essential amino acids (NEAA, Gibco) and 2 mM L-glutamine (Gibco). A Beckton Dickinson BIOCOAT® HTS Caco-2 Assay System Kit was used resulting in 6.6×10^5 cells/cm^2 seeding density (BIOCOAT is a registered trademark of Collaborative Biomedical Products, Inc., Bedford, Massachusetts, USA). The cells used in transport studies were grown for 3 days before the experiments. The culturing conditions were 37° C. in an atmosphere of 5% CO2 and 100% humidity.
A 2 mM aqueous solution of SAMe disulfate tosylate was added on the apical or basolateral side according to the manufacturer's procedure for the Caco-2 kit.
The permeability (Papp) of SAMe is calculated using the following formula: […]
Where dQ/dt is the rate of permeation, Co is the initial concentration of test agent, and A is the area of the monolayer.

[2] = PAMPA permeability of SAMe with and without propyl gallate (Example 4); assay type: in vitro ADME; details: for Average Effective Permeability: SAMe 2 mM, 5 hr
Protocol: Using a PAMPA (parallel artificial membrane permeability assay) model, the permeability of SAMe was measured in the presence and absence of propyl gallate.
PAMPA methods were used to determine the permeability of substances from a donor compartment, through a lipid-infused artificial membrane into an acceptor compartment. A multi-well microtitre plate was used for the donor and a membrane/acceptor compartment is placed on top. At the beginning of the test, SAMe disulfate tosylate (with or without different concentrations of propyl gallate as indicated in Table 2 below) was added to the donor compartment, and the acceptor compartment remained drug-free. After an incubation period, the compartments were separated and the amount of SAMe was measured in each compartment. Mass balance allows calculation of SAMe that remains in the membrane.

[3] = Beagle pharmacokinetics of SAMe tablets with various doses of propyl gallate (Example 6); details: for AUC(0-inf.) ± SD / AUC(0-t) / Cmax average of individuals / T1/2 ± SD / Tmax ± SD: oral, fasted beagles
Protocol: Tablets comprising SAMe and various amounts of propyl gallate were generated by mixing S-adenosyl-L-methionine disulfate tosylate granules (equivalent to 400 mg of SAMe ion) with the various amounts of propyl gallate listed in Table 4 below. Each mixture was pressed into a tablet and coated followed by dissolution profiling and in vivo pharmacokinetic analysis using beagle dogs.
For in vivo studies, fasted male beagle dogs (7-10 kg) were used as described above. Each group (6 dogs for SAMe/propyl gallate and 6 dogs for the SAMe control lacking propyl gallate) were dosed with a single orally administered enteric coated tablet, under fasted conditions, followed by 5 mL of purified water orally with a syringe to facilitate swallowing. Pharmacokinetic blood samples (2 mL each) for SAMe analysis were collected from the jugular vein using the following time points: pre-dose, 20 and 40 minutes, 1, 1.5, 2, 3, 4, 6, and 8 hours after treatment. The venipuncture blood samples were collected into tubes containing the anticoagulant K2-EDTA, and stored on wet ice pending processing. Following collection, samples were centrifuged (at 4° C.) to separate the plasma fraction from the blood cells. The resulting plasma fraction was recovered and stored frozen (at −80° C.) using polypropylene tubes pending bioanalytical analysis.
The concentration of SAMe in dog plasma was determined using the well established LC/MS/MS method. This method employs stable-isotope dilution liquid chromatography-electrospray […] tandem mass spectrometry (LC-ESI-MS/MS) to determine SAMe and SAH in plasma. The analysis used to calculate the main pharmacokinetic parameters (Cmax, Tmax and AUC) was conducted using GraphPad Prism® 5 software.

[4] = background statement; cited from earlier work
[5] = Plasma SAMe in beagles after tablets of SAMe co-formulated with alkyl gallates (Example 1); assay type: in vivo, Beagle dogs; details: single enteric coated tablet, 400 mg SAMe ion co-formulated with 25 mg gallic acid ester, fasted male beagles, FIG. 1
Protocol: Tablets comprising SAMe and various alkyl gallates of different chemical structure were generated by mixing SAMe with either methyl gallate, ethyl gallate, butyl gallate, isobutyl gallate, isoamyl gallate or octyl gallate (see structures below). Tablets were then administered to Beagle dogs and blood samples were withdrawn over time. Analysis of concentrations of SAMe in plasma was used to compare the effects of these gallic acid esters on the uptake of orally administered SAMe in the blood.
Tablets were generated by mixing 400 mg SAMe ion (from SAMe disulfate tosylate) with 25 mg gallic acid ester along with excipients (microcrystalline cellulose, sodium starch glycolate, silicon dioxide, and magnesium stearate) to make up the ˜1025 mg tablet. A commercial seal coat and then a commercial enteric coat was applied to the tablets prior to dissolution testing. Detailed dissolution profiling was performed according to USP standards at either pH 6.8 or 6.0 on each set of tablets to ensure that adequate dissolution was achieved prior to in vivo pharmacokinetic analysis.
The study protocol was approved by the institution's Animal Care Committee, and all animals were cared for according to regulations proposed by Agriculture Canada and the USDA.
Ten different formulations were tested in the present study. 400 mg SAMe co-formulated with 25 mg propyl gallate was compared to: SAMe control tablets (i.e., with no propyl gallate); SAMe tablets co-administered with separate 25 mg propyl gallate tablets; a commercially available SAMe product (400 mg); or 400 mg SAMe with 25 mg of either methyl gallate, ethyl gallate, butyl gallate, isobutyl gallate, isoamyl gallate or octyl gallate.

[6] = Plasma SAMe in beagles after capsules of SAMe with gallate-related molecules (Example 2); assay type: in vivo, Beagle dogs; details: single capsule, 100 mg SAMe ion with 100 mg agent, versus BHT, propyl paraben and gallic acid, FIGS. 2A and 2B
Protocol: BHT, propyl paraben and propyl gallate are food-grade antioxidants which have often been used in combination. […] The capsules also contained additional excipients (Microcrystalline cellulose, Sodium Starch Glycolate, Colloidal Silicon Dioxide, and Magnesium Stearate). Capsules were manually filled and in some embodiments, a layer of commercial seal coat was applied to the capsules using a fluid bed coater. Beagle dogs were administered a single orally delivered dose as described above.

[7] = control tablet 400 mg SAMe, 0 mg Propyl Gallate
[8] = tablet 400 mg SAMe, 6.25 mg Propyl Gallate
[9] = tablet 400 mg SAMe, 25 mg Propyl Gallate
[10] = tablet 400 mg SAMe, 100 mg Propyl Gallate

C[S+](CC[C@H](N)C(=O)[O-])C[C@H]1O[C@@H](n2cnc3c(N)ncnc32)[C@H](O)[C@@H]1O.O=S(=O)(O)CCCCS(=O)(=O)O (stereo partly drawn) [SAMe 1,4 butanedisulfonate]
apparent permeability coefficient Papp, apical to basolateral [1]: 0.5 ×10⁻⁶ cm/s
apparent permeability coefficient Papp, basolateral to apical [1]: 0.6 ×10⁻⁶ cm/s

C[S+](CC[C@H](N)C(=O)[O-])C[C@H]1O[C@@H](n2cnc3c(N)ncnc32)[C@H](O)[C@@H]1O (stereo partly drawn) [SAMe, S-adenosyl-L-methionine]
Average Permeability Coefficient Apical→Basolateral ([1]; Caco-2): 1.6 ×10⁻⁶ cm/s
Average Permeability Coefficient Basolateral→Apical ([1]; Caco-2): 1.7 ×10⁻⁶ cm/s
transport of SAMe across the PAMPA membrane [2]: essentially no transport
Average Effective Permeability ([2]; Propyl Gallate 0 mM): 0.42 ×10⁻⁶ cm/s
Average Effective Permeability ([2]; Propyl Gallate 0.2 mM): 0.2 ×10⁻⁶ cm/s
Average Effective Permeability ([2]; Propyl Gallate 2 mM): 0.48 ×10⁻⁶ cm/s
AUC(0-inf.) ± SD [3, 7]: 15,186 ± 6,831 hr*ng/mL
AUC(0-t) [3, 7]: 14,756 hr*ng/mL
Cmax average of individuals [3, 7]: 6731 ng/mL
T1/2 ± SD [3, 7]: 1.4 ± 0.4 h
Tmax ± SD [3, 7]: 1.8 ± 0.7 h
AUC(0-inf.) ± SD [3, 8]: 21,734 ± 9848 hr*ng/mL
AUC(0-t) [3, 8]: 21,395 hr*ng/mL
Cmax average of individuals [3, 8]: 11,269 ng/mL
T1/2 ± SD [3, 8]: 1.4 ± 0.5 h
Tmax ± SD [3, 8]: 1.4 ± 0.8 h
AUC(0-inf.) ± SD [3, 9]: 25,159 ± 13,033 hr*ng/mL
AUC(0-t) [3, 9]: 24,847 hr*ng/mL
Cmax average of individuals [3, 9]: 15,333 ng/mL
T1/2 ± SD [3, 9]: 1.5 ± 0.4 h
Tmax ± SD [3, 9]: 1.2 ± 0.5 h
AUC(0-inf.) ± SD [3, 10]: 34,305 ± 18,484 hr*ng/mL
AUC(0-t) [3, 10]: 34,078 hr*ng/mL
Cmax average of individuals [3, 10]: 18,700 ng/mL
T1/2 ± SD [3, 10]: 1.0 ± 0.2 h
Tmax ± SD [3, 10]: 1.6 ± 0.7 h
uptake of exogenous SAMe [4]: < 5%

CCCCOC(=O)c1cc(O)c(O)c(O)c1 [butyl gallate]
maximum SAMe plasma concentration (Cmax), uptake into the plasma [5]: did not result in pharmacokinetics even close to that of SAMe-propyl gallate formulations

CCOC(=O)c1cc(O)c(O)c(O)c1 [ethyl gallate]
maximum SAMe plasma concentration (Cmax), uptake into the plasma [5]: superior uptake into the plasma

CC(C)CCOC(=O)c1cc(O)c(O)c(O)c1 [isoamyl gallate]
maximum SAMe plasma concentration (Cmax), uptake into the plasma [5]: superior uptake into the plasma

CCCCCCCCOC(=O)c1cc(O)c(O)c(O)c1 [octyl gallate]
maximum SAMe plasma concentration (Cmax), uptake into the plasma [5]: superior uptake into the plasma

CCCOC(=O)c1cc(O)c(O)c(O)c1 [propyl gallate]
maximum SAMe plasma concentration (Cmax), uptake into the plasma [5]: superior uptake into the plasma
plasma SAMe Cmax and AUC, SAMe uptake into the blood [6]: superior and surprising ability of propyl gallate to increase SAMe uptake into the blood
effect of propyl gallate on SAMe transport across the PAMPA membrane ([2]; propyl gallate at 2.0 mM): no effect on SAMe transport
relationship of propyl gallate dose with SAMe uptake in vivo ([3]; dog, in vivo): dose-response relationship with SAMe uptake in vivo

S-adenosyl-L-methionine disulfate tosylate [SAMe disulfate tosylate]
apparent permeability coefficient Papp, apical to basolateral [1]: 0.41 ×10⁻⁶ cm/s
apparent permeability coefficient Papp, basolateral to apical [1]: 0.5 ×10⁻⁶ cm/s
